Assay results: ChEMBL document CHEMBL1201862, “PubChem BioAssay data set” (2004)
Calls of active or inactive are those of the source. For most assays here, no stated cut-off is given here; in the data, actives have a measured EC50 and inactives only a lower limit.

How the values were obtained:
[1] = molecular target: T1, Calpain-2 catalytic subunit (Sus scrofa, UniProt P43367); test: m-calpain protease blockers, concentration series – biochemical, fluorogenic peptide substrate, dose response (AID 1420); format: functional
T1 sequence (P43367 whole entry): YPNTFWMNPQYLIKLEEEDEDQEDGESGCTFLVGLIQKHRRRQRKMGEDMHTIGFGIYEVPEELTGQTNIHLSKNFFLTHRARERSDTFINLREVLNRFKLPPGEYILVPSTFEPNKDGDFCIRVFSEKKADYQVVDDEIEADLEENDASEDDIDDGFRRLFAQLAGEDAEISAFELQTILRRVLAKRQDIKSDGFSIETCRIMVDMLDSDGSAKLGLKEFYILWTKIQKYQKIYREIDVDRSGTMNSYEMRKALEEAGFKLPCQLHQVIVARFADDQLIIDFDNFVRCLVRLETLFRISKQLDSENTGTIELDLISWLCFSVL

[2] = molecular target: T2, Rac GTPase-activating protein 1 (Homo sapiens, UniProt Q9H0H5); test: blockers of MgcRacGAP-driven Rac1 GTP hydrolysis – biochemical, ADP Hunter fluorescence, primary and confirmatory, confirmation (AID 624330); format: functional
T2 sequence (Q9H0H5 whole entry): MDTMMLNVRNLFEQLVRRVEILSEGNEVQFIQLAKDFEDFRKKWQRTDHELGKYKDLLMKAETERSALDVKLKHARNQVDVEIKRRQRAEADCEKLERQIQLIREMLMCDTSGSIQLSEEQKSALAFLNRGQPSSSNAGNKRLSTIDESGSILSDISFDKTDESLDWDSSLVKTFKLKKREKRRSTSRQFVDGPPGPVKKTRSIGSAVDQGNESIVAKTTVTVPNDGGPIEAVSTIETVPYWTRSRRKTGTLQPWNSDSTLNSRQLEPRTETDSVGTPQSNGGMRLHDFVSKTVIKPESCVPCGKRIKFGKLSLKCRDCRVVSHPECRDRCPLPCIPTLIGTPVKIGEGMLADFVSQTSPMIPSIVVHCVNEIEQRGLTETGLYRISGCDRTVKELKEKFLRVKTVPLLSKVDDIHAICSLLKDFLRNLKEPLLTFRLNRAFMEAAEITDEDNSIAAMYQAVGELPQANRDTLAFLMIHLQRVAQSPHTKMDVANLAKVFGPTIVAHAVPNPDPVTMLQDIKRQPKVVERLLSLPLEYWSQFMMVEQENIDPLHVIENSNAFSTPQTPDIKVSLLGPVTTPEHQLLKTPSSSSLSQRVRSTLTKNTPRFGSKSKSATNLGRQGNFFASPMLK

[3] = Luminescence Cell-Based Dose Response HTS to Identify Inhibitors of 5'UTR Stem-Loop Driven Prion Protein mRNA Translation in H4 Neuroglioblastoma Cells. [Related pubchem assays: 1827 (Project Summary), 1813 (Primary HTS)]; format: functional
[4] = NIH3T3 cell viability loss – ATP luminescence, mouse fibroblasts, counter-screen, dose response (AID 2010); format: functional, cell-based;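 further: cells exposed to compound for about 90 hours before reading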
[5] = luciferase reporter signal suppression in cells – H4 neuroglioma cells, luminescence, dose response (AID 1990); format: functional, cell-based
[6] = alpha-synuclein stem-loop luciferase translation blockers – H4 neuroglioma cells, luminescence, confirmation (AID 1988); format: functional, cell-based
[7] = Luminescence Cell-Based Dose Retest to Confirm Inhibitors of Cancer Stem Cells. [Related pubchem assays (depositor defined):AID2717, AID2721]; format: functional; conditions: Homo sapiens
[8] = Trypanosoma cruzi growth suppression in host cells – NIH3T3 host cells, beta-gal luminescence, confirmation (AID 2044); format: functional, cell-based;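 further: intracellular parasites grown in NIH/3T3 mouse fibroblasts as host cells; luminescent beta-galactosidase reporter signal from transgenic T. cruzi replicating inside host cells; inhibitors lower the luminescence signal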
Large T antigen = Large T antigen (Simian virus 40, UniProt P03070); format: functional, Betapolyomavirus macacae;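 further: Confirmatory-stage PubChem screen for compounds that inhibit SV40 T antigen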
Large T antigen, sequence (P03070 whole entry): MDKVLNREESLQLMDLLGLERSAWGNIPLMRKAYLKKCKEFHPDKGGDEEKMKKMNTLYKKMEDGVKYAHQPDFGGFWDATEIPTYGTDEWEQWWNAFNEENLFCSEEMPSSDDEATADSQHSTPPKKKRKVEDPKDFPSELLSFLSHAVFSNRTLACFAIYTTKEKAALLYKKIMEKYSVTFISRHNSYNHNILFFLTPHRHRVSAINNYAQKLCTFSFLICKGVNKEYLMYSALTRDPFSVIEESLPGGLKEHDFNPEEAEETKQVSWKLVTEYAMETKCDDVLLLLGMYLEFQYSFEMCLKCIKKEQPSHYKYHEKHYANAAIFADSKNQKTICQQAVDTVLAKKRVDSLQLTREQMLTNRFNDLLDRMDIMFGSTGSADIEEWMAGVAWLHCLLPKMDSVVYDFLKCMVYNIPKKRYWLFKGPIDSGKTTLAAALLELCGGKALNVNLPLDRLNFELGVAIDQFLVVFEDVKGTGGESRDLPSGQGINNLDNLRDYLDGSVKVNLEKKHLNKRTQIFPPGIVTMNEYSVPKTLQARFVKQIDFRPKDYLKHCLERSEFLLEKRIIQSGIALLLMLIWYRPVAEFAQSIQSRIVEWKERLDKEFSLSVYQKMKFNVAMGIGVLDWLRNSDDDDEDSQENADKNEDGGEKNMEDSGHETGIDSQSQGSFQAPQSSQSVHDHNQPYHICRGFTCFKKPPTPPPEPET

[9] = microbe, parasite or virus in culture; format: functional; conditions: Mycobacterium tuberculosis
Paired box protein Pax-8 = Paired box protein Pax-8 (Homo sapiens, UniProt Q06710); test: PAX8 transcriptional activity inhibition in RMG-I – RMG-I cells, luciferase, cherry-pick, dose response (AID 687027); format: functional, cell-based;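 further: luciferase reporter driven by Pax8 target thyroperoxidase promoter measured by SteadyGlo luminescence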
Paired box protein Pax-8, sequence (Q06710 whole entry): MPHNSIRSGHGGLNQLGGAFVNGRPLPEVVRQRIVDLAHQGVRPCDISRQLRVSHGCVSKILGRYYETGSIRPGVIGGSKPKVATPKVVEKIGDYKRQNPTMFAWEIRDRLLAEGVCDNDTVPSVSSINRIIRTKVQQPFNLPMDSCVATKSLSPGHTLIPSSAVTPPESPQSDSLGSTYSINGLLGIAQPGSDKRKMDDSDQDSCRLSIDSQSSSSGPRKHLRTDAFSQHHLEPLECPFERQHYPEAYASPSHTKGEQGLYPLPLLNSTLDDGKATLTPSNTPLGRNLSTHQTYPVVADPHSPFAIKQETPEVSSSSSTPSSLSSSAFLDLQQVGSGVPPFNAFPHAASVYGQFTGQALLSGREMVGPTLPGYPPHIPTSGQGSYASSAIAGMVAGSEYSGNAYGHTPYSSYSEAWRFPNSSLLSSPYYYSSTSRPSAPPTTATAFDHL

[10] = molecular target: T3, Zinc finger protein mex-5 (Caenorhabditis elegans, UniProt Q9XUB2); test: potency of MEX-5 RNA-binding blockers – biochemical, C. elegans, fluorescence polarization, dose response (AID 1960)
T3 sequence (Q9XUB2 whole entry): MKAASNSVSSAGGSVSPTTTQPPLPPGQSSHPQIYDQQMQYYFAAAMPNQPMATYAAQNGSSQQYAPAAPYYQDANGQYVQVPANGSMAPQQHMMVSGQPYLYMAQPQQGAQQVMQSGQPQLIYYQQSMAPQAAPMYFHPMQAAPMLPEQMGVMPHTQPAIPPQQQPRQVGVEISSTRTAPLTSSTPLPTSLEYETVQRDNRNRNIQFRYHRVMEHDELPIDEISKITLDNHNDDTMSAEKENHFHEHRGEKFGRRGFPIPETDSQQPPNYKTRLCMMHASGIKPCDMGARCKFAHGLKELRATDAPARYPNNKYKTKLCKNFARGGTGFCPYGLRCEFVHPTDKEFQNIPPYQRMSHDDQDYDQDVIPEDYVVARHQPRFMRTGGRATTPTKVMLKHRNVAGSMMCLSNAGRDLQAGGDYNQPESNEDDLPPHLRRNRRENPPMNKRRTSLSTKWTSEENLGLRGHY

[11] = molecular target: T4, RNA-binding protein pos-1 (Caenorhabditis elegans, UniProt G5EF15); test: disruptors of C. elegans POS-1 RNA interaction – biochemical, fluorescence polarization, dose response (AID 1964);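 further: purified POS-1 fused to maltose binding protein made in E. coli; potency of compounds blocking POS-1 binding to fluorescent RNA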
T4 sequence (G5EF15 whole entry): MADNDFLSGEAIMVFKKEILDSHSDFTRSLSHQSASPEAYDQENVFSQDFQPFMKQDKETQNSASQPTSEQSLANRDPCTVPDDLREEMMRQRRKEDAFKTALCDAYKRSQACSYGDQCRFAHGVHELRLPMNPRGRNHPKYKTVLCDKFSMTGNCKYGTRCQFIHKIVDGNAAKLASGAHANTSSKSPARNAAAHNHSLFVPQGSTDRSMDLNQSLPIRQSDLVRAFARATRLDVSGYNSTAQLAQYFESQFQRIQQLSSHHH

Streptokinase A = molecular target: T5, Streptokinase A (Streptococcus pyogenes serotype M1, UniProt P10520); test: viability-normalized secreted streptokinase activity reduction – plasminogen activation absorbance, OD405, dose response (AID 1914); format: functional, Streptococcus pyogenes M1 GAS;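 further: secreted streptokinase activity via plasminogen activation per viability signal from cell pellet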
T5 sequence (P10520 whole entry): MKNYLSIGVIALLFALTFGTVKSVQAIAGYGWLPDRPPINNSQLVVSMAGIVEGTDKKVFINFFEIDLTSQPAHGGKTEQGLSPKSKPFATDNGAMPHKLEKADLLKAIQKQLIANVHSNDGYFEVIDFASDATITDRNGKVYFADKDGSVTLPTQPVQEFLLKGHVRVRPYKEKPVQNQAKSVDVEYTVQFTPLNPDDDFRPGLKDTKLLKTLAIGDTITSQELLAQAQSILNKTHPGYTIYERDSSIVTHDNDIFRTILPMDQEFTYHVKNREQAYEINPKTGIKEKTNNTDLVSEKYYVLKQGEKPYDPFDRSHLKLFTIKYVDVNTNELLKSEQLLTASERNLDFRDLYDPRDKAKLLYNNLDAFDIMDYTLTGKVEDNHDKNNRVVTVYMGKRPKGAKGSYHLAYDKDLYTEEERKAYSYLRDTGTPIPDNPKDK

Streptococcus = test: GAS UMAA2166 growth inhibition – luminescence, BacTiterGlo, counter-screen for streptokinase expression inhibitor project, dose response (AID 1915); format: functional, organism-based;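 further: potency for reduction of bacterial viability or growth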
[12] = test system: Streptococcus sp. 'group A'; test: Streptococcus pyogenes SK(-)GAS viability under kanamycin – luminescence, BacTiterGlo, confirmation, counter-screen for streptokinase expression inhibitor project, dose response (AID 1900); format: functional, organism-based

With `CCOC(=O)C1CCN(c2c([N+](=O)[O-])c(C(Cl)Cl)nn2-c2ccccc2)CC1` the IC50 [1] was 8.97 µM (not active).

In the case of `Cc1ccc(Cl)cc1N(Cc1ccc(C(=O)NCc2cccnc2)cc1)S(=O)(=O)c1ccccc1`, the IC50 [1] is reported as 7.55 µM (not active).

For `Cc1ccc(-c2nn(-c3ccccc3)cc2CNCc2ccccc2)cc1`, the IC50 [1] was > 50 µM (not active).

For `CC(=O)N1CCN(c2ccc(NCc3cccs3)cc2)CC1`, the IC50 [2] was 14.1 µM (active).

With `Cc1cc2oc(=O)c(CC(=O)NCCCN(C)C)c(C)c2c2occ(C(C)(C)C)c12` the EC50 [3] was 12.6 µM (active), the EC50 [4] was 4.86 µM (active) and the EC50 [5] was > 120 µM (not active). For the same compound, the EC50 [6] was 8.72 µM (active), the AC50 [7] was 1.22 µM (active) and the EC50 [8] was 2.29 µM (active).

In the case of `CCC(=O)Nc1ccc(Cl)c(NC(=S)NC(=O)c2cc3ccccc3o2)c1`, the IC50 [1] is reported as 25.7 µM (not active).

With `Nc1ccc2nc(S)sc2c1` the IC50 [2] was 30.4 µM (active).

For `O=C(CSc1nc2ccccc2c(=O)n1-c1ccccc1)N1CCc2ccccc21`, the IC50 [1] was 16.7 µM (not active).

With `Cc1cc(O)ccc1NC(=O)c1ccccc1` the IC50 [2] was 69.1 µM (active).

For `O=C(CN1C(=O)/C(=C\c2ccco2)SC1=S)Nc1ccc(O)cc1C(=O)O`, the IC50 (Large T antigen) was 74.2 µM (active).

In the case of `COc1ccc(-c2cn(Cc3ccc(C(=O)NCc4ccc(C)cc4)cc3)c(C(C)N)n2)cc1` (configuration not stated), the CC50 [9] is reported as > 40 µM (active).

In the case of `C[C@@H]1CCCCO[C@H](CN(C)C)[C@H](C)CN([C@H](C)CO)C(=O)c2cc(NC(=O)Nc3cccc4ccccc34)ccc2O1`, the AC50 (Paired box protein Pax-8) is reported as 33.5 µM (active).

For `C[C@H]1CCCCO[C@H](CN(C)Cc2ccc(Cl)c(Cl)c2)[C@@H](C)CN([C@@H](C)CO)C(=O)c2cc(NC(=O)Nc3ccc(F)cc3)ccc2O1`, the AC50 (Paired box protein Pax-8) was 25.9 µM (active).

With `Nc1cc(C(=O)O)ccc1Nc1ccccc1` the IC50 (Large T antigen) was 12.5 µM (active).

In the case of `CCN(CC)C(=O)Cn1cc(/C=C2\C(=O)NC(=O)N(c3ccccc3F)C2=O)c2ccccc21`, the EC50 [10] is reported as > 300 µM (not active) and the EC50 [11] is reported as > 300 µM (not active).

In the case of `COc1ccc(NC(=O)c2sc(S)nc2N)cc1`, the IC50 (Large T antigen) is reported as 7.51 µM (active).

In the case of `COc1ccc(-n2c(=O)c3c4c(sc3n3c(S)nnc23)COC(C(C)C)C4)cc1` (configuration not stated), the IC50 (Large T antigen) is reported as 16.7 µM (active).

In the case of `COc1cccc(CNC(=O)CN=C(S)N(Cc2ccccc2)Cc2ccccc2F)c1`, the IC50 [1] is reported as 6.84 µM (not active).

In the case of `Cc1ccc2cc(C#N)c(SCC(=O)NNC(=O)Cc3ccccc3)nc2c1`, the IC50 [1] is reported as 23.7 µM (not active).

For `CC1CC=C2C(C#N)=C(N)C(C#N)(C#N)C(c3cccs3)C2C1` (configuration not stated), the EC50 [10] was 14.9 µM (active) and the EC50 [11] was 21.7 µM (active).

For `COC(=O)C1C/C(=N\NS(=O)(=O)c2ccc(C)cc2)c2sccc2C1` (configuration not stated), the EC50 [3] was > 120 µM (not active), the EC50 [5] was > 120 µM (not active) and the EC50 [6] was > 120 µM (not active).

In the case of `O=C1N=C(Nc2ccc(O)cc2)S/C1=C/c1ccco1`, the IC50 (Large T antigen) is reported as 3.47 µM (active).

In the case of `Cc1cc(C)n(CCC(=O)N/N=C/c2ccc(O)cc2)n1`, the IC50 [2] is reported as 77.2 µM (active).

In the case of `CC1(c2ccccc2)CC(C)(C)n2c(O)c(C3=NC(=S)NC3=O)c3cccc1c32` (configuration not stated), the EC50 [3] is reported as 17.6 µM (active), the EC50 [5] is reported as 20.5 µM (active) and the EC50 [6] is reported as 22.8 µM (active).

With `Cc1cc(Cl)ccc1OCC(=O)Nc1ccccc1N1CCOCC1` the EC50 [3] was > 120 µM (not active), the EC50 [5] was 18.2 µM (active) and the EC50 [6] was > 120 µM (not active).

In the case of `COc1cccc(/C=C(/C(=O)OCC(=O)NC2CCCC(C)C2C)c2ccccc2)c1` (configuration not stated), the EC50 (Streptokinase A) is reported as 6.84 µM (active), the IC50 [1] is reported as 11.6 µM (not active) and the EC50 (Streptococcus) is reported as 17.3 µM (active). The EC50 [12] was 6.28 µM (active).

For `COc1ccc(S(=O)(=O)Nc2ccc3c(c2)CC(=O)N([C@H](C)CO)C[C@H](C)[C@@H](CN(C)Cc2ccc(-c4ccccc4)cc2)O3)cc1`, the AC50 (Paired box protein Pax-8) was 9.41 µM (active).

For `COc1ccc(C2=Nn3c(nnc3-c3ccccn3)SC2)cc1OC`, the EC50 [3] was > 120 µM (not active), the EC50 [5] was 20.8 µM (active) and the EC50 [6] was 17.2 µM (active).

For `FC(F)(F)c1cccc(OCc2nnc3n2CCC3)c1`, the EC50 [3] was > 120 µM (not active), the EC50 [5] was > 120 µM (not active) and the EC50 [6] was > 120 µM (not active).

With `Oc1cc(CCl)nc(Cc2c(Cl)cccc2Cl)n1` the CC50 [9] was 21.7 µM (active).

For `Fc1cc(F)cc(Nc2nc(Cl)nc(NC3CCCC3)n2)c1`, the CC50 [9] was > 40 µM (active).

With `O=C(Nc1ccc2c(c1)OCO2)c1c(F)c(F)c(F)c(F)c1F` the IC50 [1] was > 50 µM (not active).
